Measured values reported in US10370391B2, “Hydrogen peroxide-activable, anti-oxidant compounds and methods using same” (Beth Israel Deaconess Medical Center, Inc., priority 2014, dated 2019).

Experiments:
[1] = Cumulative toxicity, daily administration for 7 days in mice; assay type: in vivo, mouse; conditions: 1.5 mg/kg/day intraperitoneal
Description: FIG. 7, comprising FIGS. 7A-7C, is a set of images and bar graphs illustrating the safety profile of BRAP (1.5 mg/kg/day) after daily intraperitoneal administration for 7 days. FIGS. 7A-7B: Creatinine (FIG. 7A) and ALT (FIG. 7B) levels 7 days after daily BRAP administration. FIG. 7C: Representative H/E stained tissue sections of different organs 7 days after daily BRAP administration (n=4/group).
To determine the potential cumulative toxic effects of BRAP, BRAP (1.5 mg/kg/day) was administered daily for 7 days in mice.

[2] = system: mouse macrophage (RAW 264.7) cells stimulated by LPS; experiment: Intracellular ROS generation in LPS-stimulated macrophages (DCFH-DA, flow cytometry); assay type: cell-based; conditions: BRAP 0.25 mM, compared with 0.5 mM of HBA; LPS 1 μg/mL
Description: FIG. 4, comprising FIGS. 4A-4F, is a set of graphs, bar graphs and images illustrating anti-oxidant and anti-inflammatory effects of BRAP in vitro. […] The generation of ROS was monitored by flow cytometry as an indicator of DCF fluorescence. Fluorescence was analyzed in 10,000 cells with excitation at 480 nm and emission at 530 nm. FIG. 4C: Protective effect of BRAP on H2O2— stimulated adult rat cardiomyocytes. V=vehicle, *<0.05 vs. V+H2O2 (n=4). […] (n=4/group).
The anti-oxidant activities of BRAP were examined using mouse macrophage (RAW 264.7) and fibroblast (NIH/3T3) cells stimulated by LPS (lipopolysaccharide) (FIGS. 4A-4B). Intracellular ROS production in the stimulated cells was analyzed by flow cytometry using DCFH-DA ([…]-diacetate), which can be oxidized by the action of various intracellular oxidants such as H2O2 and hydroxyl radical to become fluorescent […] (DCF) (Kim, et al., 2011, Biomat. 32:3021; Cho, et al., 2012, Adv. Funct. Mat. 22:4038). Untreated cells have no significant DCF fluorescence.

[3] = system: human embryonic kidney (HEK 293) cells; experiment: MTT cytotoxicity assay, HEK 293; assay type: cell-based; conditions: concentrations as high as 5 mM, 24 hours of incubation
Description: FIG. 8, comprising FIGS. 8A-8B, is a set of bar graphs illustrating biocompatibility profiles of BRAP assessed by MTT assay in human embryonic kidney (HEK 293) cells (FIG. 8A) and mouse embryonic fibroblast (NIH 3T3) cells (FIG. 8B).
3-(4,5-Dimethylthiazil-2yl)-2,5-diphenyltetrazolium bromide (MTT) assay was performed to evaluate the cytotoxicity of BRAP. NIH 3T3 cells were cultured at a density of 1×10^5 cells/well in a 24 well plate, and RAW 264.7 cells and HEK cells were also cultured at a density of 2×10^5 cells/well in a 24 well plate. Cells were incubated for 24 hours to reach ˜80% confluency. Cells were treated with various amount of BRAP and incubated for 24 hours. Each well was given 100 μL of MTT solution and was incubated for 4 h. 200 μL of dimethyl sulfoxide (DMSO) were added to each well to dissolve the resulting formazan crystals. After 10 min incubation, the absorbance at 570 nm was measured using a microplate reader (Biotek Instruments, Winooski, Vt.). The cell viability was determined by comparing the absorbance of BRAP treated cells that of control cells.

[4] = H2O2 scavenging by peroxalate chemiluminescence (diphenyl oxalate, rubrene)
Description: FIG. 21 is a bar graph illustrating H2O2-scavenging by BRAP-encapsulated PLGA microparticles. BRAP-encapsulated PLGA microparticles were incubated in H2O2 solution (10 μM) for 10 minutes, and the level of H2O2 was determined by peroxalate chemiluminesce using rubrene (1 mg) and diphenylperoxalate (10 mg).
Without wishing to be limited by any theory, BRAP could scavenge H2O2 during its H2O2-mediated boronate oxidation. This possibility was investigated using peroxalate chemiluminescence. Peroxalate chemiluminescence has been used as a versatile tool for the detection of a variety of chemical species including fluorescent molecules and H2O2 because of its excellent specificity and simplicity (Hadd, et al., 1999, J. Chem. Educ. 76:1237; Lee, et al., 2011, Bull. Korean Chem. Soc. 32:2187). […] A majority of H2O2 was scavenged by the same concentration of BRAP within 1 minutes.
The ability of the boronate compound to scavenge H2O2 was evaluated by measuring the chemiluminescence intensity after the reaction with diphenyl oxalate solution including rubrene. The boronate (1 μM, or 10 μM) was added in the H2O2 solution (10 μM). After 1 min reaction with H2O2, diphenyl oxalate solution was added to the H2O2 solution, and the chemiluminescence intensity was measured by using a luminometer (Femtomaster FB 12, Zylux Corporation, TN, US; FIG. 13).
The ability of BRAP to scavenge H2O2 was evaluated by measuring the chemiluminescence intensity after the reaction with diphenyl oxalate solution including rubrene. BRAP (1 μM, 5 μM, 10 μM, 20 μM) was added in the H2O2 solution (10 μM). After 1, 5 or 10 min reaction with H2O2, diphenyl oxalate solution was added to the H2O2 solution, and the chemiluminescence intensity was measured by using a luminometer (Femtomaster FB 12, Zylux Corporation, TN, US).

[5] = Reaction of BRAP with H2O2 monitored by 1H NMR in D2O; assay type: physicochemical
Description: Since BRAP was designed to be rapidly oxidized by H2O2, generating HBA, boric acid and 2-(hydroxymethyl)-2-methylpropane-1,3-diol, the sensitivity of BRAP to H2O2 was investigated using ^1H NMR. BRAP was added to D2O containing H2O2 and the changes in the signal were monitored over time. In the presence of H2O2, BRAP was rapidly oxidized to generate HBA in a H2O2 concentration-dependent manner, confirmed by the appearance of new aromatic proton peaks at 6.8 and 7.2 ppm. In the presence of equimolar concentration of H2O2 (1 mM), a majority of boronic esters were cleaved within 30 minutes, with a half-life of hydrolysis of ˜5 minutes. Nearly all of boronic ester groups were cleaved by 5-fold excess of H2O2 (5 mM) within 5 minutes.

[6] = system: adult rat ventricular cardiomyocytes (ARVC); experiment: MTT cytotoxicity assay, ARVC; assay type: cell-based; conditions: concentrations as high as 5 mM, 24 hours of incubation
Excerpt: FIG. 3, comprising FIGS. 3A-3B, is a set of bar graphs illustrating biocompatibility profiles of BRAP assessed by MTT assay in mouse macrophage (RAW264.7) cells (FIG. 3A) and ARVC (FIG. 3B).

- half-life at 1 mM ([5]; D2O containing H2O2, equimolar concentration of H2O2 (1 mM), read-out: half-life of hydrolysis): ~5 min
- stability of boronic ester ([5]; absence of H2O2, 3 days): remained intact
SMILES: CC1(CO)COB(c2ccc(CO)cc2)OC1 [BRAP, (4-(5-(hydroxymethyl)-5-methyl-1,3,2-dioxaborinan-2-yl)phenyl)methanol]
- histology of different organs (H/E) [1]: no significant histological evidence of accumulated toxicity
- serum test for hepatic function (ALT) [1]: no significant abnormalities
- serum test for renal function (creatinine) [1]: no significant abnormalities
- inhibition of LPS-induced ROS generation [2]: significantly stronger inhibitory effects
- cytotoxicity (MTT) [3]: no significant cytotoxicity
- chemiluminescence intensity (H2O2 scavenging) ([4]; H2O2 solution 10 μM, BRAP, concentration-dependent): significant reduction in chemiluminescence intensity
- time in which a majority of H2O2 was scavenged ([4]; same concentration of BRAP as H2O2): ≤ 1 min
- time in which nearly all of boronic ester groups were cleaved ([5]; 5-fold excess of H2O2 (5 mM)): ≤ 5 min
- time in which a majority of boronic esters were cleaved ([5]; equimolar concentration of H2O2 (1 mM)): ≤ 30 min
- cytotoxicity (MTT) [6]: no significant cytotoxicity
